Among the data in PubChem BioAssay AID298 (DTP/NCI, 2004) are T/C values, retold here.

Values joined by “and” are separate entries in the source; they are usually repeats but may differ in a detail not shown here. Equal entries are not always repeated. Records with an inconclusive call do not appear.

The test system of the assay is MX-1 breast xenograft, intrarenal, nude mice, tumor weight. Kind of assay: NCI In Vivo Anticancer Drug Screen. Data for tumor model Human Mammary Carcinoma MX-1 Xenograft (intrarenal inoculation) in NU/NU BALB/C (nude) mice. Conditions: endpoint: mean tumor weight change, higher = larger tumour. The essentials:
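Transplantable tumors established in mice; animals dosed with compound or vehicle; survival or tumor size then recorded. Result reported as treated (T) divided by vehicle control (C).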
On the technique in general: Xenograft models place foreign cells or tissue in a host animal.

Setting [1] is: dose: 50.0 mg/kg/injection, schedule: Q04DX003 (ip), vehicle: Klucel (hydroxypropylcellulose) (HPC).
The mark [2] stands for this setting: dose: 100.0 mg/kg/injection, schedule: Q04DX003 (ip), vehicle: Klucel (hydroxypropylcellulose) (HPC).
[3] abbreviates: dose: 200.0 mg/kg/injection, schedule: Q04DX003 (ip), vehicle: Klucel (hydroxypropylcellulose) (HPC).
The mark [4] stands for this setting: dose: 300.0 mg/kg/injection, schedule: Q04DX003 (sc), vehicle: saline with Tween-80.
The mark [5] stands for this setting: dose: 600.0 mg/kg/injection, schedule: Q04DX003 (sc), vehicle: saline with Tween-80.
Where [6] appears, read: dose: 1200.0 mg/kg/injection, schedule: Q04DX003 (sc), vehicle: saline with Tween-80.
[7] abbreviates: dose: 400.0 mg/kg/injection, schedule: Q04DX003 (ip), vehicle: Klucel (hydroxypropylcellulose) (HPC).

`OC(CBr)C(O)C(O)C(O)CBr` (stereo not drawn): the T/C is, setting by setting: (dose: 15.0 mg/kg/injection, schedule: Q01DX010 (ip), vehicle: Klucel (hydroxypropylcellulose) (HPC)) 29 % of control; (dose: 30.0 mg/kg/injection, schedule: Q01DX010 (ip), vehicle: Klucel (hydroxypropylcellulose) (HPC)) 13 % of control; under setting [1], 93 % of control; (dose: 50.0 mg/kg/injection, schedule: Q04DX003 (sc), vehicle: Klucel (hydroxypropylcellulose) (HPC)) 35 % of control; (dose: 60.0 mg/kg/injection, schedule: Q01DX010 (ip), vehicle: Klucel (hydroxypropylcellulose) (HPC)) -22 % of control; under setting [2], 61 % of control. Also, the T/C reads like this: (dose: 100.0 mg/kg/injection, schedule: Q04DX003 (sc), vehicle: Klucel (hydroxypropylcellulose) (HPC)) 33 % of control; under setting [3], -44 % of control.

With `C[C@H]1C[C@@H]2[C@H]([C@@H](O)C[C@@]3(C)[C@H]2CC[C@]3(O)C(=O)CO)[C@@]2(C)C=CC(=O)C=C12`, the T/C by setting is: (dose: 200.0 mg/kg/injection, schedule: Q04DX003 (sc), vehicle: Klucel (hydroxypropylcellulose) (HPC)) 37 % of control; (dose: 400.0 mg/kg/injection, schedule: Q04DX003 (sc), vehicle: Klucel (hydroxypropylcellulose) (HPC)) 47 % of control; (dose: 800.0 mg/kg/injection, schedule: Q04DX003 (sc), vehicle: Klucel (hydroxypropylcellulose) (HPC)) 37 % of control; (dose: 1600.0 mg/kg/injection, schedule: Q04DX003 (sc), vehicle: Klucel (hydroxypropylcellulose) (HPC)) 19 % of control.

Take `CC[C@@]1(O)C(=O)OCc2c1cc1n(c2=O)Cc2cc3c(N)cccc3nc2-1`: the T/C (dose: 0.72 mg/kg/injection, schedule: Q04DX003 (ip), vehicle: saline with Tween-80) is 6 % of control; the T/C (dose: 1.0 mg/kg/injection, schedule: Q04DX003 (ip), vehicle: saline with Tween-80) was -97 % of control; the T/C (dose: 1.2 mg/kg/injection, schedule: Q04DX003 (ip), vehicle: saline with Tween-80) was -30 % of control; the T/C (dose: 2.0 mg/kg/injection, schedule: Q04DX003 (ip), vehicle: saline with Tween-80) was -92 % of control and -100 % of control; the T/C (dose: 3.33 mg/kg/injection, schedule: Q04DX003 (ip), vehicle: saline with Tween-80) is -100 % of control.

With `CN=C(NC#N)NCCSCc1nc[nH]c1C`, under “dose: 600.0 mg/kg/injection, schedule: Q04DX003 (sc), vehicle: Klucel (hydroxypropylcellulose) (HPC)”, the T/C was 108 % of control.

For `O=[N+]([O-])c1ccc(N2CCOCC2)c2c1no[n+]2[O-]`, the T/C reads like this: (dose: 150.0 mg/kg/injection, schedule: Q04DX003 (sc), vehicle: saline with Tween-80) 99 % of control; under setting [4], 55 % of control; under setting [5], 74 % of control; under setting [6], 63 % of control.

`CCCCCCn1c(SC)nc(COC(=O)NC)c1COC(=O)NC`: the T/C is 6 % of control (dose: 33.7 mg/kg/injection, schedule: Q04DX003 (ip), vehicle: saline); -37 % of control (dose: 67.5 mg/kg/injection, schedule: Q04DX003 (ip), vehicle: saline); -86 % of control (dose: 135.0 mg/kg/injection, schedule: Q04DX003 (ip), vehicle: saline); -100 % of control (dose: 270.0 mg/kg/injection, schedule: Q04DX003 (ip), vehicle: saline).

`O=C(/C=C/c1cccnc1)/C=C/c1cccnc1`: the T/C under setting [1] is 67 % of control.

Turning to `CN=NN(C)C(=O)NC`, the T/C (dose: 37.5 mg/kg/injection, schedule: Q04DX003 (ip), vehicle: saline) is 112 % of control; the T/C (dose: 75.0 mg/kg/injection, schedule: Q04DX003 (ip), vehicle: saline) was 79 % of control; the T/C (dose: 108.0 mg/kg/injection, schedule: Q04DX003 (ip), vehicle: saline) is 2 % of control; the T/C (dose: 150.0 mg/kg/injection, schedule: Q04DX003 (ip), vehicle: saline) is 15 % of control; the T/C (dose: 180.0 mg/kg/injection, schedule: Q04DX003 (ip), vehicle: saline with Tween-80) is 108 % of control; the T/C (dose: 300.0 mg/kg/injection, schedule: Q04DX003 (ip), vehicle: saline) is -13 % of control. In addition, the T/C (dose: 500.0 mg/kg/injection, schedule: Q04DX003 (ip), vehicle: saline with Tween-80) is 124 % of control.

For `CN(CO)c1nc(N(C)CO)nc(N(C)CO)n1`, the T/C was 86 % of control (dose: 6.25 mg/kg/injection, schedule: Q01DX010 (sc), vehicle: saline); 30 % of control (dose: 12.5 mg/kg/injection, schedule: Q01DX010 (sc), vehicle: saline); 2 % of control (dose: 25.0 mg/kg/injection, schedule: Q01DX010 (sc), vehicle: saline); 1 % of control (dose: 100.0 mg/kg/injection, schedule: Q01DX010 (sc), vehicle: saline).

In the case of `N#Cc1c(-c2ccccc2)c(-c2ccccc2)nn(CC(=O)O)c1=O`, the T/C reads like this: (dose: 100.0 mg/kg/injection, schedule: Q04DX003 (ip), vehicle: distilled water + Tween-80) 120 % of control; (dose: 200.0 mg/kg/injection, schedule: Q04DX003 (ip), vehicle: distilled water + Tween-80) 85 % of control.

For the molecule `O=C(CCCN1CCC(C(O)c2ccc(F)cc2)CC1)c1ccc(F)cc1` (stereo not drawn), the T/C by setting is: (dose: 25.0 mg/kg/injection, schedule: Q04DX003 (ip), vehicle: saline with Tween-80) 90 % of control; (dose: 50.0 mg/kg/injection, schedule: Q04DX003 (ip), vehicle: saline with Tween-80) 83 % of control.

Take `CC(=O)Oc1[nH]c(=O)c2cccc3c2c1CCC3`: the T/C was 107 % of control under setting [4]; 93 % of control under setting [5]; 118 % of control under setting [6]; 89 % of control (dose: 2400.0 mg/kg/injection, schedule: Q04DX003 (sc), vehicle: saline with Tween-80).

On to `c1ccc2c3c(c4c(c2c1)CN(C1CCCCC1)CO4)OCN(C1CCCCC1)C3`, for which the T/C (dose: 37.5 mg/kg/injection, schedule: Q04DX003 (ip), vehicle: water) was 108 % of control; the T/C (dose: 75.0 mg/kg/injection, schedule: Q04DX003 (ip), vehicle: water) was 82 % of control and 88 % of control; the T/C (dose: 150.0 mg/kg/injection, schedule: Q04DX003 (ip), vehicle: water) was 59 % of control; the T/C (dose: 300.0 mg/kg/injection, schedule: Q04DX003 (ip), vehicle: water) was 111 % of control.

Take `C/C=C\C1OC1(C)c1cc(=O)c2c(C)cc3c(c2o1)C(=O)c1c(O)c(C2CC(C)(N(C)C)C(OC(C)=O)C(C)O2)cc(C2CC(N(C)C)C(O)C(C)O2)c1C3=O` (stereo not drawn): the T/C (dose: 0.75 mg/kg/injection, schedule: Q04DX003 (ip), vehicle: saline + alcohol) was 89 % of control; the T/C (dose: 1.5 mg/kg/injection, schedule: Q04DX003 (ip), vehicle: saline + alcohol) was 34 % of control and 50 % of control; the T/C (dose: 3.0 mg/kg/injection, schedule: Q04DX003 (ip), vehicle: saline + alcohol) was 29 % of control and 47 % of control; the T/C (dose: 6.0 mg/kg/injection, schedule: Q04DX003 (ip), vehicle: saline + alcohol) was 11 % of control and 32 % of control; the T/C (dose: 12.0 mg/kg/injection, schedule: Q04DX003 (ip), vehicle: saline + alcohol) is 39 % of control.

For `NC(=O)C1C=CN(Cc2ccccc2)C=C1`, the T/C was 62 % of control (dose: 100.0 mg/kg/injection, schedule: Q04DX003 (ip), vehicle: saline with Tween-80) and 64 % of control (dose: 200.0 mg/kg/injection, schedule: Q04DX003 (ip), vehicle: saline with Tween-80).

Turning to `O=C1C2=C(Nc3cc([N+](=O)[O-])ccc3N2)OC1c1ccccn1` (stereo not drawn), the T/C reads like this: under setting [1], 87 % of control; under setting [2], 66 % of control; under setting [3], 118 % of control; under setting [7], 63 % of control.

Turning to `CCn1c(-c2ccc(OC(C)=O)cc2)c(C)c2cc(OC(C)=O)ccc21`, the T/C (dose: 150.0 mg/kg/injection, schedule: Q04DX003 (ip), vehicle: Klucel (hydroxypropylcellulose) (HPC)) is 68 % of control; the T/C (dose: 300.0 mg/kg/injection, schedule: Q04DX003 (ip), vehicle: Klucel (hydroxypropylcellulose) (HPC)) is 61 % of control; the T/C (dose: 600.0 mg/kg/injection, schedule: Q04DX003 (ip), vehicle: Klucel (hydroxypropylcellulose) (HPC)) was 63 % of control; the T/C (dose: 1200.0 mg/kg/injection, schedule: Q04DX003 (ip), vehicle: Klucel (hydroxypropylcellulose) (HPC)) is 47 % of control.

As to `CN(C)CN1C(=O)S/C(=C2\C(=O)N(CN(C)C)c3ccccc32)C1=O`, the T/C under setting [2] was 102 % of control, the T/C under setting [3] was 100 % of control and the T/C under setting [7] was 80 % of control.
